Measurements reported in US8765946B2, “Methods of preparing and using quinazoline and quinoline derivatives” (priority 2006, dated 2014).

Tests used:
BT474 cells = test: BT-474 cell growth inhibition assay (SRB assay); format: cell-based; settings: Homo sapiens, concentration of 3 μM, 72 h, read-out: Inhibition Percent (%)
Experimental: BT-474 Cell Growth Inhibition Assay (SRB Assay)
BT-474 human breast cancer cell lines were kindly provided by Dr. Changnian Liu, Pharmaron Beijing Co., Ltd.
BT-474 cells were cultured in 37° C., 5% CO2, saturated humidity until logarithmic phase. Discarded culture medium, washed cells once by PBS. Added 1 ml Trypsin/EDTA solution, stood at 37° C. for 5 min, allowed the cells to detach. Added culture medium, adjusted the cells density to 1×10^5 cells/ml.
Day 0, added 100 μl/well cells suspension to 96-well cell culture plates. Incubated overnight to let the cells attach completely.
Day 1, compounds (2 mM in DMSO as stock solution) was diluted to 20 μM in EMEM. Then a fourfold serial dilution was made. These diluted compounds were made as 10× reaction solutions, and the concentration of DMSO was kept at 1%.
Added 80 μl culture medium and 20 μl 10× compound reaction solution to the testing wells, or vehicle control to the control wells. Co-incubated cells with compounds for another 72 h.
Day 3, fixed cellular protein by the addition of 100 μl/well of 10% TCA (diluting from 50% TCA) at 4° C. for 1 h. Rinsed TCA using plate washer, and washed five times using distilled water. Removed the residual wash solution with a piece of absorbent paper. Added 100 μl/well 0.4% SRB solution, allowed a 15-30 min staining period. Removed the SRB, and washed the culture plates five times using 1% acetic acid. Removed the residual wash solution with a piece of absorbent paper. Air-dried the culture plates, dissolved the protein-bound dye with 100 μl/well of 10 mM Tris base solution. Shook the plates until the dye was dissolved completely.

A431 cells = test: A431 cell growth inhibition assay (MTT assay); format: cell-based; settings: Homo sapiens; for inhibition at 3 µM: A-431, concentration of 3 μM, 72 hours, read-out: Inhibition Percent (%)
Experimental: A431 Cell Growth Inhibition Assay (MTT Assay)
A431, an epidermoid carcinoma cell line; The Cell Bank, Committee on Type Culture Collection Chinese Academy of Science, Shanghai.
Mix prepared medium DMEM and F12 in the proportion of 1:1, then add FBS to a final concentration of 10%.
Dissolved the dried compound sample with 100% DMSO to 2 mM. Then diluted the dissolved compound to 20 μM with cell complete growth medium.
Prior to the assay, cultured the A431 to logarithmic phase, and then removed medium from cell monolayers and wash the cells once with sterilized PBS. Aspriated the PBS and added 2 mL trypsin solution to cover the cell growth surface, removed 1 mL trypsin solution after soaking about 1 minute. Transferred the cell-culture plate to CO2 incubator; incubated at 37° C. for 8 minutes to allow cells to dissociate. After the cells detached, added 4 mL complete growth medium containing FBS with pipette to disperse them off and mixed gently to obtain a homogeneous cell suspension. Aspirated some of the cell suspension to a sterilized polypropylene tube, and determined the cell concentration by counting in a hematocytometer chamber under a microscope. Adjusted the cell concentration with growth medium to obtain 2.5×10^4 cells per milliliter.
Added 100 μL adjusted cell suspension to the 96-well cell-culture plate and occasionally mixed the cell suspension during the seeding process. After seeding cells, incubated the plate at 37° C. overnight with 5% CO2 in the CO2 incubator for cell attachment.
After the cell attachment, added 100 μL prepared compound solutions to the corresponding wells (add PBS to the ambient wells of the plate). The final compound concentrations ranged from 10 μM to 1.52 nM. Incubated the plate at 37° C. with 5% CO2 for 72 hours in the CO2 incubator.
After the exposure to the compound, removed the cell culture supernatant. Then added 100 μL 0.5 mg/mL MTT solution which dissolved in the growth medium without FBS. Incubated the plate at 37° C. with 5% CO2 for another 4 hours to allow the MTT reaction to proceed.
After the MTT reaction, discarded the MTT reaction solution. Added 100 μL DMSO to each well, and the plate was agitated on the plate shaker for several minutes to dissolve the formazan. Then, detected the absorbance at 490 nm using microplate reader.

Row | EC50 (A431 cells; A-431, 72 hours (Table 11)) [µM] | Compound | inhibition at 3 µM (BT474 cells) [%] | inhibition at 3 µM (A431 cells) [%]
1 | – | COCCOc1cc2ncc(C#N)c(Nc3ccc(OCc4cccc(F)c4)c(Cl)c3)c2cc1NC(=O)C=C1CCN(CCOC)CC1 [Example 211, N-(4-(4-(3-fluorobenzyloxy)-3-chlorophenylamino)-3-cyano-7-(2-methoxyethoxy)quinolin-6-yl)-2-(1-(2-methoxyethyl)piperidin-4-ylidene)acetamide] | 81 | –
2 | – | N#Cc1cnc2ccc(NC(=O)C=C3CCNCC3)cc2c1Nc1ccc(OCc2cccc(F)c2)c(Cl)c1 [Example 168, N-(4-(4-(3-fluorobenzyloxy)-3-chlorophenylamino)-3-cyanoquinolin-6-yl)-2-(piperidin-4-ylidene)acetamide] | 89 | 41
3 | – | COc1cc2ncc(C#N)c(Nc3ccc(Oc4cccc(F)c4)c(Cl)c3)c2cc1NC(=O)C=C1CCNCC1 [Example 146, N-(4-(3-chloro-4-(3-fluorophenoxy)phenylamino)-3-cyano-7-methoxyquinolin-6-yl)-2-(piperidin-4-ylidene)acetamide] | 85 | 52
4 | – | C#Cc1cccc(Nc2c(C#N)cnc3cc(OCCOC)c(NC(=O)C=C4CCNCC4)cc23)c1 [Example 169, N-(3-cyano-4-(3-ethynylphenylamino)-7-(2-methoxyethoxy)quinolin-6-yl)-2-(piperidin-4-ylidene)acetamide] | 58 | 92
5 | 3.4 | CCOc1cc2ncc(C#N)c(Nc3ccc(OCc4cccc(F)c4)c(Cl)c3)c2cc1NC(=O)C=C1CCNCC1 [Example 145, N-(4-(4-(3-fluorobenzyloxy)-3-chlorophenylamino)-3-cyano-7-ethoxyquinolin-6-yl)-2-(piperidin-4-ylidene)acetamide] | 80 | 49
6 | – | COc1cc2ncc(C#N)c(Nc3cccc(Br)c3)c2cc1NC(=O)C=C1CCNCC1 [Example 155, N-(4-(3-bromophenylamino)-3-cyano-7-methoxyquinolin-6-yl)-2-(piperidin-4-ylidene)acetamide] | 58 | 90
7 | – | CCOc1cc2ncc(C#N)c(Nc3ccc(OCc4ccccn4)c(Cl)c3)c2cc1NC(=O)C=C1CCN(CCOC)CC1 [Example 161, N-(4-(3-chloro-4-(pyridin-2-ylmethoxy)phenylamino)-3-cyano-7-ethoxyquinolin-6-yl)-2-(1-(2-methoxyethyl)piperidin-4-ylidene)acetamide] | 90 | 49
8 | – | C#Cc1cccc(Nc2c(C#N)cnc3cc(OCC)c(NC(=O)C=C4CCN(C)CC4)cc23)c1 [Example 158, N-(3-cyano-7-ethoxy-4-(3-ethynylphenylamino)quinolin-6-yl)-2-(1-methylpiperidin-4-ylidene)acetamide] | 57 | 90
9 | – | CCCN1CCC(=CC(=O)Nc2cc3c(Nc4ccc(OCc5ccccn5)c(Cl)c4)c(C#N)cnc3cc2OCCOC)CC1 [Example 202, N-(4-(3-chloro-4-(pyridin-2-ylmethoxy)phenylamino)-3-cyano-7-(2-methoxyethoxy)quinolin-6-yl)-2-(1-propylpiperidin-4-ylidene)acetamide] | 92 | –
10 | – | CCN1CCC(=CC(=O)Nc2cc3c(Nc4ccc(OCc5ccccn5)c(Cl)c4)c(C#N)cnc3cc2OCCOC)CC1 [Example 201, N-(4-(3-chloro-4-(pyridin-2-ylmethoxy)phenylamino)-3-cyano-7-(2-methoxyethoxy)quinolin-6-yl)-2-(1-ethylpiperidin-4-ylidene)acetamide] | 89 | –
11 | – | COCCN1CCC(=CC(=O)Nc2cc3c(Nc4ccc(OCc5ccccn5)c(Cl)c4)c(C#N)cnc3cc2OC)CC1 [Example 198, N-(4-(3-chloro-4-(pyridin-2-ylmethoxy)phenylamino)-3-cyano-7-methoxyquinolin-6-yl)-2-(1-(2-methoxyethyl)piperidin-4-ylidene)acetamide] | 86 | –
12 | – | CCOc1cc2ncc(C#N)c(Nc3ccc(OCc4cccc(F)c4)c(Cl)c3)c2cc1NC(=O)C=C1CCN(C)CC1 [Example 162, N-(4-(4-(3-fluorobenzyloxy)-3-chlorophenylamino)-3-cyano-7-ethoxyquinolin-6-yl)-2-(1-methylpiperidin-4-ylidene)acetamide] | 91 | 41
13 | – | COCCOc1cc2ncc(C#N)c(Nc3ccc(OCc4ccccn4)c(Cl)c3)c2cc1NC(=O)C=C1CCNCC1 [Example 165, N-(4-(3-chloro-4-(pyridin-2-ylmethoxy)phenylamino)-3-cyano-7-(2-methoxyethoxy)quinolin-6-yl)-2-(piperidin-4-ylidene)acetamide] | 87 | 53
14 | – | COCCOc1cc2ncc(C#N)c(Nc3ccc(OCc4cccc(F)c4)c(Cl)c3)c2cc1NC(=O)C=C1CCNCC1 [Example 167, N-(4-(4-(3-fluorobenzyloxy)-3-chlorophenylamino)-3-cyano-7-(2-methoxyethoxy)quinolin-6-yl)-2-(piperidin-4-ylidene)acetamide] | 84 | 45
15 | – | N#Cc1cnc2ccc(NC(=O)C=C3CCNCC3)cc2c1Nc1cccc(Br)c1 [Example 172, N-(4-(3-bromophenylamino)-3-cyanoquinolin-6-yl)-2-(piperidin-4-ylidene)acetamide] | 61 | 84
16 | – | COc1cc2ncc(C#N)c(Nc3ccc(OCc4ccccn4)c(Cl)c3)c2cc1NC(=O)C=C1CCN(C)CC1 [Example 197, N-(4-(3-chloro-4-(pyridin-2-ylmethoxy)phenylamino)-3-cyano-7-methoxyquinolin-6-yl)-2-(1-methylpiperidin-4-ylidene)acetamide] | 82 | –
17 | – | CCOc1cc2ncc(C#N)c(Nc3ccc(OCc4ccccn4)c(Cl)c3)c2cc1NC(=O)C=C1CCN(CC)CC1 [Example 199, N-(4-(3-chloro-4-(pyridin-2-ylmethoxy)phenylamino)-3-cyano-7-ethoxyquinolin-6-yl)-2-(1-ethylpiperidin-4-ylidene)acetamide] | 87 | –
18 | – | CCN1CCC(=CC(=O)Nc2cc3c(Nc4ccc(OCc5cccc(F)c5)c(Cl)c4)c(C#N)cnc3cc2OCCOC)CC1 [Example 209, N-(4-(4-(3-fluorobenzyloxy)-3-chlorophenylamino)-3-cyano-7-(2-methoxyethoxy)quinolin-6-yl)-2-(1-ethylpiperidin-4-ylidene)acetamide] | 78 | –
19 | – | CCOc1cc2ncc(C#N)c(Nc3ccc(OCc4cccc(F)c4)c(Cl)c3)c2cc1NC(=O)C=C1CCN(CC)CC1 [Example 206, N-(4-(4-(3-fluorobenzyloxy)-3-chlorophenylamino)-3-cyano-7-ethoxyquinolin-6-yl)-2-(1-ethylpiperidin-4-ylidene)acetamide] | 80 | –
20 | – | COCCOc1cc2ncc(C#N)c(Nc3ccc(OCc4ccccn4)c(Cl)c3)c2cc1NC(=O)C=C1CCN(C)CC1 [Example 200, N-(4-(3-chloro-4-(pyridin-2-ylmethoxy)phenylamino)-3-cyano-7-(2-methoxyethoxy)quinolin-6-yl)-2-(1-methylpiperidin-4-ylidene)acetamide] | 90 | –
21 | – | COCCOc1cc2ncc(C#N)c(Nc3ccc(OCc4cccc(F)c4)c(Cl)c3)c2cc1NC(=O)C=C1CCN(C)CC1 [Example 208, N-(4-(4-(3-fluorobenzyloxy)-3-chlorophenylamino)-3-cyano-7-(2-methoxyethoxy)quinolin-6-yl)-2-(1-methylpiperidin-4-ylidene)acetamide] | 83 | –
